In patent US7098334B2 (Industrial Research Limited, priority 2002, dated 2006):
Read-outs that look alike come from different tables or passages of the source.

How the values were obtained:
[1] = target: T1, human MTAP (Homo sapiens, UniProt Q13126); test: Enzyme inhibition assay, MTAP (slow-onset inhibition constants); assay type: biochemical
T1 construct: inferred from pQE32 vector and Ni-NTA purification) (N); made in house; host or cells: E. coli
T1 sequence (Q13126 1-283): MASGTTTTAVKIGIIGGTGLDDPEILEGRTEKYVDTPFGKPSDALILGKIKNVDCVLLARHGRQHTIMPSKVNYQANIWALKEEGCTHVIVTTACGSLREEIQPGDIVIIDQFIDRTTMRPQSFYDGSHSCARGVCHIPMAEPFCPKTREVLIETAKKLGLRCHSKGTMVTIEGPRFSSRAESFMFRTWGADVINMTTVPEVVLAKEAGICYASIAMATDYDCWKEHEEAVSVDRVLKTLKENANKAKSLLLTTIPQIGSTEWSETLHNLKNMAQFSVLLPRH
Procedure: Ki as shown in Tables 1 and 2 is the initial inhibition constant formed by the enzyme-inhibitor complex, and Ki* is the equilibrium dissociation constant for inhibition that is observed following a period of slow-onset, tight binding inhibition. Ki* is the biologically effective constant.
Enzyme assays were conducted to assess the effectiveness of selected compounds of the invention as inhibitors of MTAP and MTAN.
Enzymes.—The human MTAP protein was cloned into pQE32 expression vector and transformed into E. coli. Induction cultures containing 1 L (25 mg/L) and 50 μg/mL ampicillin were inoculated with 1 mL overnight grown starter-culture and incubated at 37° C. When the cultures reached an OD of ≈0.6 they were induced with 1.5 mM IPTG for 6 to 8 hours. Cells were harvested by centrifugation at 5000 rpm for 30 min, and subsequently resuspended in a buffer (20 mM imidazole, 300 mM NaCl, 0.2 mM phenylmethylsulfonyl fluoride (PMSF), 100 mM Tris, pH 8.0) containing a small amount of lysozyme to weaken the cell membrane. Cells were lysed with a French press. The insoluble material was removed by high-speed centrifugation. The cell extract was further clarified with 35% ammonium sulfate precipitation followed by high-speed centrifugation. The clarified cell extract was then applied to a 5 mL Ni-NTA column that had previously been equilibrated with the binding buffer. Further chromatographic steps were carried out by FPLC. The column was washed with 10 volumes of 50 mM imidazole, 300 mM NaCl, and 100 mM Tris, pH 8.0, and the protein was eluted with a buffer containing a 50–250 mM gradient of imidazole, 300 mM NaCl, 1 M Tris, pH 8.0. The purity of the protein was verified by running polyacrylamide gel followed by Coomassie staining. The protein was subsequently dialyzed in 50 mM NaCl, 2 mM dithiothreitol (DTT) and 50 mM Tris, pH 7.4, and was concentrated to 10 mg/mL. The purified protein was stored at −80° C. in 100 μL to 150 μL aliquots.
Inhibitors.—Inhibitor concentrations were determined by the UV absorbance spectrum using the published millimolar extinction coefficients for 9-dazadenine of 8.5 at 275 nm at pH 7.0.
Assays.—The direct spectrophotometric assay for the conversion of MTA into adenine was measured as the decrease in absorbance at 274 nm. At 274 nm, Δε between MTA and adenine is at a maximum and produces a spectral change of 1.6 absorbance units/cm/mM (DeWolf, W. E. Jr., Fullin, F. A., and Schramm, V. L. (1979) J. Biol. Chem. 254, 10868–10875)
This concentration corresponds to an OD of 0.7–1.1 at 274 nM. The formation of product was monitored as a decrease in absorbance at 274 nm. Conditions for Ki* determination used high concentrations of substrate. Two controls, one having no inhibitor and the other no enzyme were included in the experiment. The Ki values MTAP for the various compounds were calculated by fitting in the ratio of initial rates in the presence of inhibitor to without any inhibitor versus the inhibitor concentration, for the known Km and substrate concentration into the following expression.
Where Vo′ is the rate in the presence of inhibitor • Vo rate in the absence of inhibitor • [I] inhibitor concentration • And [S] is the substrate concentration
And the Ki* was calculated by fitting to the following expression
Where Vs′ is the steady-state rate following attainment of equilibrium in the presence inhibitor, and Vs is the steady-state rate in the control having no inhibitor. Both these equations are valid for competitive type inhibition.

[2] = system: Lewis lung carcinoma cells; test: Radiation sensitizing effect on Lewis lung carcinoma cells; assay type: cell-based; conditions: 5′-methylthio-ImmA at 2 μM; 10 Gy X-ray; cells counted by Trypan Blue after 48 hrs
Procedure: Lewis lung carcinoma cells (1×10^6) were plated and allowed to adhere overnight in 2 mL of DMEL medium substituted with 10% fetal bovine serum, 1% Pen-Strep, 2.5% Na-Pyruvate, 1% non-essential amino acids in 6 well plates. 50 μM MTA, 50 μM MTA+2 μM 5′-methylthio-ImmA or 2 μM 5′-methylthio-ImmA was then added in 1 mL of the same medium as indicated. Control wells were treated with medium without any additions. This treatment was allowed to continue for 6 hours. In each experiment one set of treated cells were subjected to 10 Gy of X-ray irradiation and a control set received no irridation. Both irradiated and unirradiated cells were then cultured for another 48 hours in the presence of MTA±5′-methylthio-ImmA. Manual counting of living and dead cells was done by Trypan Blue dye exclusion following 48 hrs of growth. (Approximate doubling time for Lewis Lung cells was 24 hours.)

Compound: CSC[C@H]1N[C@@H](c2c[nH]c3c(N)ncnc23)C(O)[C@H]1O (some centres unmarked) [5′-methylthio-ImmA]
- Ki ([1]; MTA at 150 μM, Km=2.5 μM, read-out: Ki (FIG. 1, inhibition of MTAP at varying concentrations)): 0.107 nM
- Ki* ([1]; MTAP, equilibrium dissociation constant after slow-onset, tight binding inhibition): in the pM range
- Ki ([1]; MTAP, equilibrium dissociation constant after slow-onset, tight binding inhibition, read-out: Ki*): 0.09 ± 0.018 nM
- Ki ([1]; MTAP, initial inhibition constant, read-out: Ki): 5 ± 0.5 nM
- effect on cell growth and irradiation damage (FIG. 2) [2]: acts in a similar manner to 50 μM MTA
